The target in the experiment is T1, hCRTH2 (Homo sapiens, UniProt Q9Y5Y4).
T1 construct: expressed in transfected cells; host or cells: HEK (human embryonic kidney) cells expressing hCRTH2; membrane preparation
T1 sequence (Q9Y5Y4 1-395): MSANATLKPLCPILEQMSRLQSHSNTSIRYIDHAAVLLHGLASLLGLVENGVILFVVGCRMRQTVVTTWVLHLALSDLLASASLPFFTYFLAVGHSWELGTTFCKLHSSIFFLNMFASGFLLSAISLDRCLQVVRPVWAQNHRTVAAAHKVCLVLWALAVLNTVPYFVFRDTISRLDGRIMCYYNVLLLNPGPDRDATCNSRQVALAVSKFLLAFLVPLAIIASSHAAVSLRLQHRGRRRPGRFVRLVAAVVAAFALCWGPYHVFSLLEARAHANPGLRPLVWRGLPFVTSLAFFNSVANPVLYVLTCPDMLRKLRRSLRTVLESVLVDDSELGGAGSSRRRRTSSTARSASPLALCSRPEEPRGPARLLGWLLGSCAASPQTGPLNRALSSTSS
Briefly: Radioligand binding assay ([3H]PGD2 competition, HEK-hCRTH2 membranes). An outline of the steps: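 Filter-bound radioactivity was counted by scintillation after 60 min incubations at room temperature. Membranes (8-20 μg) from HEK cells expressing hCRTH2 competed test ligands against 3.0 nM [3H]PGD2 in Tris-HCl pH 7.4 buffer with EDTA and 2 mM MnCl2; 10 μM PGD2 set non-specific binding.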

Where [1] appears, read: [3H]PGD2 binding, rated A-E (Table A).

One may read the Ki as a dissociation constant, usually derived from enzyme kinetics or from competition with a known ligand. Read a low Ki as higher affinity.

The molecule `C[C@@H](NC(=O)c1ccc2nc(-c3ccc(Cl)cc3)c(CC3CCC(C(=O)O)C3)nc2c1)c1ccc(F)cc1` (mixture of isomers) [compound 28, 3-((3-(4-chlorophenyl)-7-((R)-1-(4-fluorophenyl)ethylcarbamoyl)quinoxalin-2-yl)methyl)cyclopentanecarboxylic acid] came in with a Ki under setting [1] of 2.1 to 20 nM.
Regarding `O=C(O)CCCCc1nc2cc(C(=O)N3[C@@H]4CC[C@H]3CN(Cc3ccccc3)C4)ccc2nc1-c1ccc(Cl)cc1` [compound 702], the Ki ([3H]PGD2 competition, Table B) is 2.1 to 20 nM.
Under setting [1], `CC(CCCc1nc2cc(C(=O)N3CCN(c4ccccc4)CC3)ccc2nc1-c1ccc(Cl)cc1)C(=O)O` (stereo not drawn) [compound 169, 3-(4-chlorophenyl)-alpha-methyl-7-[(4-phenyl-1-piperazinyl)carbonyl]-2-quinoxalinepentanoic acid] returned a Ki of 2.1 to 20 nM.
In turn, `CN(Cc1ccc(F)cc1)C(=O)c1ccc2nc(-c3ccc(Cl)cc3)c(CCc3cc(F)cc(CC(=O)O)c3)nc2c1` [compound 447, 2-(3-(2-(3-(4-chlorophenyl)-7-((4-fluorobenzyl)(methyl)carbamoyl)quinoxalin-2-yl)ethyl)-5-fluorophenyl)acetic acid] gave an inhibition constant Ki ([3H]PGD2 competition, Table B) of 0.1 to 2 nM.
On to `CC(CCc1nc2cc(C(=O)N[C@@H](c3ccccc3)C(F)(F)F)ccc2nc1-c1ccc(C(F)(F)F)cc1)CC(=O)O` (some centres unmarked) [17S], for which the Ki under setting [1] lay within 2.1 to 20 nM.
In turn, `CC(NC(=O)c1ccc2nc(-c3ccc(Cl)cc3)c(CCCCC(=O)O)nc2c1)c1ccccn1` (stereo in doubt) [16AA, 3-(4-chlorophenyl)-7-[[[1(S)-(2-pyridinyl)ethyl]amino]carbonyl]-2-quinoxalinepentanoic acid] registered a Ki under setting [1] of 0.1 to 2 nM.
Under setting [1], `O=C(O)CCCCc1nc2cc(C(=O)NCc3ccc(C(F)(F)F)cc3)cnc2nc1-c1ccccc1` [compound 14] returned a Ki of 2.1 to 20 nM.
For `COC(=O)c1ccc2nc(-c3ccc(C(F)(F)F)cc3)c(CCCCC(=O)O)nc2c1` [3AG, 7-(methoxycarbonyl)-3-[4-(trifluoromethyl)phenyl]-2-quinoxalinepentanoic acid], the Ki under setting [1] lay in the range of 2.1 to 20 nM.
The molecule `O=C(O)CCCCc1nc2cc(C(=O)N3CCC4(CC3)CNC(=O)c3ccccc34)ccc2nc1-c1ccc(Cl)cc1` [compound 267, 5-(3-(4-chlorophenyl)-7-(1-oxo-2,3-dihydro-1H-spiro[isoquinoline-4,4′-piperidin]-1′-ylcarbonyl)quinoxalin-2-yl)pentanoic acid] returned a Ki ([3H]PGD2 competition, Table B) of 2.1 to 20 nM.
Consider `O=C(O)CCCCc1nc2ccc(C(=O)NCc3cccc(Cl)c3)cc2nc1-c1ccccc1` [compound 8], for which the Ki under setting [1] lay in the range of 20.1 to 200 nM.
Take `C[C@@H](NC(=O)c1ccc2nc(-c3ccc(Cl)cc3)c(CCCCC(=O)O)nc2c1)c1cccc(Cl)c1` [compound 180, 3-(4-chlorophenyl)-7-[[[1(R)-(3-chlorophenyl)ethyl]amino]carbonyl]-2-quinoxalinepentanoic acid]: the Ki was 0.1 to 2 nM under setting [1] and 0.6 nM ([3H]PGD2 binding, values in text).
`CC(CCCc1nc2cc(C(=O)N[C@@H]3CCCc4cc(Cl)ccc43)ccc2nc1-c1ccccc1)C(=O)O` (stereo partly drawn) [compound 458, 5-(7-(((R)-6-chloro-1,2,3,4-tetrahydronaphthalen-1-yl)carbamoyl)-3-phenylquinoxalin-2-yl)-2-methylpentanoic acid]: the Ki ([3H]PGD2 competition, Table B) lay in the range of 2.1 to 20 nM.
In turn, `Cc1nonc1N1CCN(C(=O)c2ccc3nc(-c4ccc(Cl)cc4)c(CCCCC(=O)O)nc3c2)CC1` [compound 675, 5-(3-(4-chlorophenyl)-7-(4-(4-methyl-1,2,5-oxadiazol-3-yl)piperazine-1-carbonyl)quinoxalin-2-yl)pentanoic acid] gave an inhibition constant Ki ([3H]PGD2 competition, Table B) of 2.1 to 20 nM.
For the setting “[3H]PGD2 competition, Table B”, `CN(C(=O)c1ccc2nc(-c3ccccc3)c(CCCCC(=O)O)nc2c1)[C@@H]1CCCc2ccccc21` [compound 378, (R)-5-(7-(methyl(1,2,3,4-tetrahydronaphthalen-1-yl)carbamoyl)-3-phenylquinoxalin-2-yl)pentanoic acid] gave a Ki of 20.1 to 200 nM.
Where the note is “[3H]PGD2 competition, Table B”, `O=C(O)CCCCc1nc2cc(C(=O)N3CCN(c4cccnc4)CC3)ccc2nc1-c1ccc(Cl)cc1` [compound 679, 5-(3-(4-chlorophenyl)-7-(4-(pyridin-3-y)piperazine-1-carbonyl)quinoxalin-2-yl)pentanoic acid] returned a Ki of 2.1 to 20 nM.
Same read-out and setting: next, `O=C(O)CCCCc1nc2cc(C(=O)N3CCCC3c3ccncc3)ccc2nc1-c1ccc(Cl)cc1` (centres unmarked) [compound 650, 5-(3-(4-chlorophenyl)-7-(2-(pyridin-4-yl)pyrrolidine-1-carbonyl)quinoxalin-2-yl)pentanoic acid]: 20.1 to 200 nM; `O=C(O)CCCCc1nc2cc(C(=O)NC3CC(=O)Nc4ccccc43)ccc2nc1-c1ccc(Cl)cc1` (centres unmarked) [compound 691, 5-(3-(4-chlorophenyl)-7-((2-oxo-1,2,3,4-tetrahydroquinolin-4-yl)carbamoyl)quinoxalin-2-yl)pentanoic acid]: 2.1 to 20 nM.
Take `O=C(O)CCCCc1nc2cc(C(=O)N3CCC(c4cnccn4)CC3)ccc2nc1-c1ccccc1` [15BS, 5-{3-phenyl-7-[(4-pyrazin-2-ylpiperidin-1-yl)carbonyl]quinoxalin-2-yl}pentanoic acid]: the Ki under setting [1] lay within 2.1 to 20 nM.
As to `O=C(O)CCCCc1nc2cc(C(=O)N3CCN(c4ccccc4Cl)CC3)ccc2nc1-c1ccc(Cl)cc1` [compound 609, 5-(3-(4-chlorophenyl)-7-(4-(2-chlorophenyl)piperazine-1-carbonyl)quinoxalin-2-yl)pentanoic acid], the Ki ([3H]PGD2 competition, Table B) fell in the range of 0.1 to 2 nM.
Molecule `N#CC1(c2ccccc2)CCN(C(=O)c2ccc3nc(-c4ccc(Cl)cc4)c(CCCCC(=O)O)nc3c2)C1` (centres unmarked) [compound 604, 5-(3-(4--chlorophenyl)-7-(3-cyano-3-phenyl-pyrrolidine-1-carbonyl)quinoxalin-2-yl)pentanoic acid] showed an inhibition constant (Ki) ([3H]PGD2 competition, Table B) of 0.1 to 2 nM.
For `CC(CCCc1nc2cc(C(=O)NC3Cc4ccccc4C3)ccc2nc1-c1ccc(Cl)cc1)C(=O)O` (stereo not drawn) [compound 168, 3-(4-chlorophenyl)-7-[[(2,3-dihydro-1H-inden-2-yl)amino]carbonyl]-alpha-methyl-2-quinoxalinepentanoic acid], the Ki under setting [1] lay within 2.1 to 20 nM.
The molecule `O=C(O)CCCCc1nc2cc(C(=O)N[C@@H](c3ccccc3)C(F)(F)F)ccc2nc1-c1ccc(C(F)(F)F)cc1` [compound 149, 3-[4-(trifluoromethyl)phenyl]-7-[[(2,2,2-trifluoro-1(S)-phenylethyl)amino]carbonyl]-2-quinoxalinepentanoic acid] displayed a Ki under setting [1] of 2.1 to 20 nM.
Take `O=C(O)CCCCc1nc2cc(C(=O)N3CC4CC4(c4ccccc4)C3)ccc2nc1-c1ccc(Cl)cc1` (centres unmarked) [compound 690, 5-(3-(4-chlorophenyl)-7-(1-phenyl-3-azabicyclo[3.1.0]hexane-3-carbonyl)quinoxalin-2-yl)pentanoic acid]: the Ki ([3H]PGD2 competition, Table B) fell in the range of 2.1 to 20 nM.
The molecule `O=C(O)Cc1cccc(CCc2nc3cc(C(=O)N4CC(c5ccccc5)C4)ccc3nc2-c2ccc(Cl)cc2)c1` [19K, 3-[2-[3-(4-chlorophenyl)-7-[(3-phenyl-1-azetidinyl)carbonyl]-2-quinoxalinyl]ethyl] benzeneacetic acid] showed a Ki under setting [1] of 2.1 to 20 nM.
Consider `CC(CCc1nc2cc(C(=O)N3CC[C@H](c4ccccc4)C3)ccc2nc1-c1ccc(Cl)cc1)CC(=O)O` (stereo partly drawn) [17L, 3-(4-chlorophenyl)-beta-methyl-7-[(3(R)-phenyl-1-pyrrolidinyl)carbonyl]-2-quinoxalinepentanoic acid], for which the inhibitory constant (Ki) under setting [1] lay in the range of 2.1 to 20 nM.
As to `O=C(O)CCCCc1nc2cc(C(=O)N3CCN(c4ccccn4)CC3)ccc2nc1-c1ccc(Cl)cc1` [compound 554, 5-(3-(4-chlorophenyl)-7-(4-(pyridin-2-yl)piperazine-1-carbonyl)quinoxalin-2-yl)pentanoic acid], the Ki ([3H]PGD2 competition, Table B) lay in the range of 2.1 to 20 nM.
The molecule `O=C(O)CCCCc1nc2cc(C(=O)N3CCC4(CC3)Cc3ccccc3C(=O)N4)ccc2nc1-c1ccc(Cl)cc1` [compound 568, 5-(3-(4-chlorophenyl)-7-(1-oxo-2,4-dihydro-1H-spiro[isoquinoline-3,4′-piperidin]-1′-ylcarbonyl)quinoxalin-2-yl)pentanoic acid] displayed a Ki ([3H]PGD2 competition, Table B) of 2.1 to 20 nM.
As to `C[C@@H](CCc1nc2cc(C(=O)N[C@@H]3CCCc4ccccc43)ccc2nc1-c1ccc(F)cc1)CC(=O)O` [compound 258, (S)-5-(3-(4-fluorophenyl)-7-(((R)-1,2,3,4-tetrahydronaphthalen-1-yl)carbamoyl)quinoxalin-2-yl)-3-methylpentanoic acid], for the setting “[3H]PGD2 competition, Table B”, the Ki is 2.1 to 20 nM.
The same measure, in the same setting: next, `O=C(O)CCCCc1nc2cc(C(=O)N3CCCC3c3ccccn3)ccc2nc1-c1ccc(Cl)cc1` (centres unmarked) [compound 662, 5-(3-(4-chlorophenyl)-7-(2-(pyridin-2-yl)pyrrolidine-1-carbonyl)quinoxalin-2-yl)pentanoic acid]: 20.1 to 200 nM.
Same read-out and setting: for `O=C(O)CCCCc1nc2cc(C(=O)N3CCC4(CC3)NC(=O)Cc3ccccc34)ccc2nc1-c1ccccc1` [compound 299, 5-(7-(3-oxo-3,4-dihydro-2H-spiro[isoquinoline-1,4′-piperidin]-1′-ylcarbonyl)-3-phenylquinoxalin-2-yl)pentanoic acid] the value was 2.1 to 20 nM.
Regarding `O=C(O)CCCCc1nc2cc(C(=O)NCc3cccc(C(F)(F)F)c3)ccc2nc1-c1ccc(Cl)cc1` [16AB, 3-(4-chlorophenyl)-7-[[[[3-(trifluoromethyl)phenyl]methyl]amino]carbonyl]-2-quinoxalinepentanoic acid], the Ki under setting [1] was 0.1 to 2 nM.

Values taken from patent US9469615B2, “Quinoxalines and AZA-quinoxalines as CRTH2 receptor modulators” (Merck Sharp & Dohme Corp., priority 2010, dated 2016).
